Test results published in patent US11938103B2, “Potentiation of helminth treatment” (Elanco Tiergesundheit AG, priority 2018, dated 2024).

Columns and labels:
[1] = test system: liver flukes; settings: cited from earlier work
[2] = test system: Fasciola hepatica (immature stage); assay: Efficacy against immature stage F. hepatica infection in cattle (Example 4); assay type: in vivo; settings: single oral dose day 49, livers day 91 or 92, diamphenethide 60 mg/kg, clorsulon 5 mg/kg, combination 60 and 5 mg/kg; for % Efficacy using Arithmetic mean / % Efficacy using Geometric Mean: vs untreated control
Procedure: (§1) Doses were administered orally from suitably sized disposable syringes.
(§2) The fluke counts and body weights were log-transformed (after adding a constant of 1 to the fluke counts only) and the distribution of the transformed data checked to see if they satisfied the assumption of normal distribution.
(§3) Arithmetic means (Amean), geometric means (Gmean), median and ranges were summarized for fluke counts, fluke measurements and bodyweight. A constant of one was applied for calculation of geometric means of fluke counts.
(§4) The percentage efficacy for each treated group was calculated as follows: % Efficacy=100×(FCC−FCT)/FCC where FCC is the arithmetic mean fluke count of the control group and FCT is the arithmetic mean fluke count of the treated group. The formula was also applied using mean geometric fluke counts; these were calculated using log transformed data with 1 added as a constant to each fluke count and then subtracted following transformation.
(§5) Note that expected synergy is defined as: 1−Efficacy(expected without synergy)=(1−EfficacyD)×(1−EfficacyC).
This study was to assess the efficacy of diamphenethide (60 mg/kg) given concurrently with clorsulon (5 mg/kg), diamphenethide alone (60 mg/kg), and clorsulon alone (5 mg/kg) against F. hepatica in cattle with treatment on day 49. This was a controlled, blinded, randomized study.
(§6) On day 0, the calves were experimentally infected with a single isolate of approximately 382 Sunny Corner (Fashep-66) isolate F. hepatica metacercariae. The required number of metacerceriae were made up in 2% carboxymethyl cellulose. Syringes were checked post-infection for retained metacerceriae. The infection was administered orally and each infective dose was followed by water administered orally. The cattle were randomized into treatment groups on the basis of day 48 body weight and allocated to groups as denoted in Table 4.1.
Body weight was determined one day prior to treatment. All treatments were measured by volume and rounded to the nearest 0.1 mL. On day 49, and before feeding, the individual animals were treated once only with the treatment in Table 4.1. […] Untreated control animals were also fed at this time.
(§7) The liver with gall bladder and bile ducts intact were recovered from each animal on day 91 or 92 and processed for F. hepatica counts. The assessment of efficacy was based on the number of live fluke removed from the liver.

[3] = test system: Fasciola hepatica (early immature stage); assay: Efficacy against early immature stage F. hepatica infection in cattle (Example 5); assay type: in vivo; settings: single oral dose day 21, livers day 91 or 92, diamphenethide 40 mg/kg, clorsulon 7 mg/kg, combination 40 and 7 mg/kg; for % Efficacy using Arithmetic mean / % Efficacy using Geometric Mean: vs untreated control
Procedure: as §1, §2, §3, §4, §5
This study was to assess the efficacy of diamphenethide (40 mg/kg) given concurrently with clorsulon (7 mg/kg), diamphenethide alone (40 mg/kg), and clorsulon alone (7 mg/kg) against F. hepatica in cattle with treatment on day 21. This was a controlled, blinded, randomized study.
as §6, with “350” for “382”, “20” for “48”, “5.1.” for “4.1.”
Body weight was determined one day prior to treatment. All treatments were measured by volume and rounded to the nearest 0.1 mL. On day 21, and before feeding, the individual animals were treated once only with the treatment in Table […]. […] Untreated control animals were also fed at this time.
as §7

[4] = test system: Fasciola hepatica (early immature stage); assay: Efficacy against early immature stage F. hepatica infection in sheep (Example 3); assay type: in vivo; settings: single oral dose day 14, livers day 91, diamphenethide 20 mg/kg, clorsulon 10 mg/kg, combination 20 and 10 mg/kg; for % Efficacy using Arithmetic mean / % Efficacy using Geometric Mean: vs untreated control
Procedure: as §1, §2, §3, §4, §5
This study was to assess the efficacy of diamphenethide (20 mg/kg) given concurrently with clorsulon (10 mg/kg), diamphenethide alone (20 mg/kg), and clorsulon alone (10 mg/kg) against F. hepatica in sheep with treatment on day 14. This was a controlled, blinded, randomized study using sheep.
On day 0, the sheep were experimentally infected with a target of 200 “Sunny Corner” (laboratory strain reference Fashep-66) F. hepatica metacercariae. The required number of metacercariae were prepared for infection in a water and 2% carboxymethylcellulose solution. Each infective dose was followed by water administered orally.
The sheep were randomized into treatment groups on the basis of day 13 body weight and allocated to groups as denoted in Table 3.1. Animals were treated on day 14 with a single dose as noted in Table 3.1.
Body weight was determined one day prior to treatments, which were measured by volume and rounded to the nearest 0.1 mL. On day 14, and before feeding, the individual animals were treated once only with the Treatment in Table 3.1. […] Untreated control animals were also fed at this time.
The liver with gall bladder and common bile duct intact were recovered on day 91 from each animal and processed for F. hepatica counts. The assessment of efficacy was based on the number of live fluke removed from the liver.
An ANOVA model was used to compare fluke counts between treatment groups. The model was applied to the log-transformed counts. There was one fixed effect, treatment group.

[5] = deacylation to DAMD; cited from earlier work
[6] = test system: Fasciola hepatica (immature stage); assay: Efficacy against immature stage F. hepatica infection in sheep (Example 2); assay type: in vivo; settings: single oral dose day 42, livers day 91, diamphenethide 40 mg/kg, clorsulon 3.5 mg/kg, combination 40 and 3.5 mg/kg; for % Efficacy using Arithmetic mean / % Efficacy using Geometric Mean: vs untreated control
Procedure: In the following examples, all animals were confirmed free of infection with F. hepatica and found clinically healthy by a veterinarian prior to enrollment in the study. Doses were administered orally from suitably sized disposable syringes. […] Differences between treatment groups were analyzed by analysis of variance methods (ANOVA), as the assumptions of normal distribution were satisfied for log-transformed fluke count and log-transformed bodyweight, as well as for (untransformed) fluke measurements. Arithmetic […]), geometric […]), median and ranges were summarized for fluke counts, fluke measurements and bodyweight. A constant of one was applied for calculation of geometric means of fluke counts. […] On day 0, the sheep were experimentally infected with a target of 200 “Sunny Corner” (laboratory strain reference […]. hepatica […]. The required number of […] prepared for infection in a water and 4% carboxymethylcellulose solution. Each infective dose was followed by water administered orally. Syringes were subsequently checked post-infection for retained […] was determined that the sheep were administered between 93.5% and 100% (98.3% on average) of the target infective dose. The sheep were randomized into treatment groups on the basis of day 41 body weight and allocated to groups as denoted in Table 2.1. Body weight was determined one day prior to treatments, which were measured by volume and rounded to the nearest 0.1 mL. On day 42, and before feeding, the individual animals were treated once only with the Treatment in Table 2.1. Once the animals had been treated they were returned to their pens and fed within one hour. Untreated control animals were also fed at this time. The liver with gall bladder and common bile duct intact were recovered on day 91 from each animal and processed for F. hepatica counts. The assessment of efficacy was based on the number of live fluke removed from the liver. An ANOVA model was used to compare fluke counts between treatment groups. The model was applied to the log-transformed counts. There was one fixed effect, treatment group.

[7] = test system: Fasciola hepatica; settings: cited from earlier work

SMILES	Fluke Count, Arithmetic mean [2]	Fluke Count, Geometric Mean [2]	% Efficacy using Arithmetic mean [2] [%]	% Efficacy using Geometric Mean [2] [%]	Fluke Count, Arithmetic mean [3]	Fluke Count, Geometric Mean [3]	% Efficacy using Arithmetic mean [3] [%]	% Efficacy using Geometric Mean [3] [%]	Fluke Count, Arithmetic mean [4]	Fluke Count, Geometric Mean [4]	% Efficacy using Arithmetic mean [4] [%]	% Efficacy using Geometric Mean [4] [%]	Fluke Count, Arithmetic mean [6]	Fluke Count, Geometric Mean [6]	% Efficacy using Arithmetic mean [6] [%]	% Efficacy using Geometric Mean [6] [%]	also measured
CC(=O)Nc1ccc(OCCOCCOc2ccc(NC(C)=O)cc2)cc1 [Diamphenethide, N-[4-[2-[2-(4-acetamidophenoxy)ethoxy]ethoxy]phenyl]acetamide]	73.8	61.8	12.1	26.0	54.2	53.1	30.7	27.5	89.0	87.5	40.0	36.3	57.6	50.9	36.1	41.5	Effectiveness against early immature flukes ([1]; early immature flukes up to 6 weeks of age): highly effective; Activity against flukes as they develop to maturity ([1]; flukes developing to maturity): progressively lower activity; Metabolism [5]: rapidly metabolized by deacylation
Nc1cc(C(Cl)=C(Cl)Cl)c(S(N)(=O)=O)cc1S(N)(=O)=O [Clorsulon, 4-amino-6-(1,2,2-trichloroethenyl)benzene-1,3-disulfonamide]	72.6	70.7	13.6	15.3	45.2	42.4	42.2	42.1	99.8	90.6	28.2	34.0	81.8	79.7	9.3	8.4	Effectiveness by host species ([1]; cattle versus sheep): more effective in cattle than in sheep; Effectiveness against mature flukes ([1]; mature flukes): effective against mature flukes
O=C(Nc1ccc(Oc2ccc(Cl)cc2)c(Cl)c1)c1cc(I)cc(I)c1O [rafoxanide]																	Isolates showing resistance at recommended doses ([7]; ten of seventeen F. hepatica isolates from different geographical regions): 58.8%
Cc1cc(C(C#N)c2ccc(Cl)cc2)c(Cl)cc1NC(=O)c1cc(I)cc(I)c1O (stereo not drawn) [closantel]																	Side resistance in rafoxanide-resistant F. hepatica isolates ([7]; F. hepatica isolates, New South Wales): side resistance to closantel was evident
